Test results taken from article PMC8288134, “Synthesis, potential antitumor activity, cell cycle analysis, and multitarget mechanisms of novel hydrazones incorporating a 4-methylsulfonylbenzene scaffold: a molecular docking study” (Journal of Enzyme Inhibition and Medicinal Chemistry, 2021).
Like-named read-outs stand apart in the source and are kept apart here.

Experiments:
[1] = test system: UO-31; set-up: method as in https://dtp.cancer.gov/dtpstandard/dwindex/index.jsp; conditions: reference drugs, ref https://dtp.cancer.gov/dtpstandard/dwindex/index.jsp; cited from earlier work
[2] = test system: MDA-MB-468; set-up: method as in https://dtp.cancer.gov/dtpstandard/dwindex/index.jsp; conditions: reference drugs, ref https://dtp.cancer.gov/dtpstandard/dwindex/index.jsp; cited from earlier work
[3] = test system: renal cancer tumour cell lines; conditions: cited from earlier work; for GI50: read-out: GI50 (subpanel average), reference drugs, ref https://dtp.cancer.gov/dtpstandard/dwindex/index.jsp; for CC50: read-out: LC50 (subpanel average), reference drugs, ref https://dtp.cancer.gov/dtpstandard/dwindex/index.jsp; for TGI (subpanel average): reference drugs, ref https://dtp.cancer.gov/dtpstandard/dwindex/index.jsp
[4] = test system: SF-268; set-up: method as in https://dtp.cancer.gov/dtpstandard/dwindex/index.jsp; conditions: reference drugs, ref https://dtp.cancer.gov/dtpstandard/dwindex/index.jsp; cited from earlier work
[5] = test system: breast cancer tumour cell lines; conditions: cited from earlier work; for CC50: read-out: LC50 (subpanel average), reference drugs, ref https://dtp.cancer.gov/dtpstandard/dwindex/index.jsp; for TGI (subpanel average): reference drugs, ref https://dtp.cancer.gov/dtpstandard/dwindex/index.jsp
[6] = test system: SW-620; set-up: method as in https://dtp.cancer.gov/dtpstandard/dwindex/index.jsp; conditions: reference drugs, ref https://dtp.cancer.gov/dtpstandard/dwindex/index.jsp; cited from earlier work
[7] = test system: full panel of 59 cancer cell lines; conditions: cited from earlier work; for GI50: read-out: GI50 MG-MID (full panel mean-graph midpoint), reference drugs, ref https://dtp.cancer.gov/dtpstandard/dwindex/index.jsp; for CC50: read-out: LC50 MG-MID (full panel mean-graph midpoint), reference drugs, ref https://dtp.cancer.gov/dtpstandard/dwindex/index.jsp; for TGI MG-MID (full panel mean-graph midpoint): reference drugs, ref https://dtp.cancer.gov/dtpstandard/dwindex/index.jsp
[8] = test system: COLO 205; set-up: method as in https://dtp.cancer.gov/dtpstandard/dwindex/index.jsp; conditions: reference drugs, ref https://dtp.cancer.gov/dtpstandard/dwindex/index.jsp; cited from earlier work
[9] = test system: ovarian cancer tumour cell lines; conditions: cited from earlier work; for GI50: read-out: GI50 (subpanel average), reference drugs, ref https://dtp.cancer.gov/dtpstandard/dwindex/index.jsp; for CC50: read-out: LC50 (subpanel average), reference drugs, ref https://dtp.cancer.gov/dtpstandard/dwindex/index.jsp; for TGI (subpanel average): reference drugs, ref https://dtp.cancer.gov/dtpstandard/dwindex/index.jsp
[10] = test system: MCF7; set-up: method as in https://dtp.cancer.gov/dtpstandard/dwindex/index.jsp; conditions: reference drugs, ref https://dtp.cancer.gov/dtpstandard/dwindex/index.jsp; cited from earlier work
[11] = test system: melanoma tumour cell lines; conditions: cited from earlier work; for GI50: read-out: GI50 (subpanel average), reference drugs, ref https://dtp.cancer.gov/dtpstandard/dwindex/index.jsp; for CC50: read-out: LC50 (subpanel average), reference drugs, ref https://dtp.cancer.gov/dtpstandard/dwindex/index.jsp; for TGI (subpanel average): reference drugs, ref https://dtp.cancer.gov/dtpstandard/dwindex/index.jsp
[12] = test system: CNS cancer tumour cell lines; conditions: cited from earlier work; for GI50: read-out: GI50 (subpanel average), reference drugs, ref https://dtp.cancer.gov/dtpstandard/dwindex/index.jsp; for CC50: read-out: LC50 (subpanel average), reference drugs, ref https://dtp.cancer.gov/dtpstandard/dwindex/index.jsp; for TGI (subpanel average): reference drugs, ref https://dtp.cancer.gov/dtpstandard/dwindex/index.jsp
[13] = test system: SK-MEL-2; set-up: method as in https://dtp.cancer.gov/dtpstandard/dwindex/index.jsp; conditions: reference drugs, ref https://dtp.cancer.gov/dtpstandard/dwindex/index.jsp; cited from earlier work
[14] = test system: 786-0; set-up: method as in https://dtp.cancer.gov/dtpstandard/dwindex/index.jsp; conditions: reference drugs, ref https://dtp.cancer.gov/dtpstandard/dwindex/index.jsp; cited from earlier work
[15] = test system: SK-OV-3; set-up: method as in https://dtp.cancer.gov/dtpstandard/dwindex/index.jsp; conditions: reference drugs, ref https://dtp.cancer.gov/dtpstandard/dwindex/index.jsp; cited from earlier work
[16] = test system: SR; set-up: method as in https://dtp.cancer.gov/dtpstandard/dwindex/index.jsp; conditions: reference drugs, ref https://dtp.cancer.gov/dtpstandard/dwindex/index.jsp; cited from earlier work
[17] = test system: EKVX; set-up: method as in https://dtp.cancer.gov/dtpstandard/dwindex/index.jsp; conditions: reference drugs, ref https://dtp.cancer.gov/dtpstandard/dwindex/index.jsp; cited from earlier work
[18] = test system: IGROV1; test: NCI antitumor screen (SRB); format: cell-based; conditions: Homo sapiens, IGROV-1, one dose 10 µM, read-out: Growth inhibition percentage (GI%)
[19] = test system: COLO 205; test: NCI antitumor screen (SRB); format: cell-based; conditions: Homo sapiens, one dose 10 µM, read-out: Growth inhibition percentage (GI%)
[20] = test system: NCI-H226; test: NCI antitumor screen (SRB); format: cell-based; conditions: Homo sapiens, one dose 10 µM, read-out: Growth inhibition percentage (GI%)
[21] = test system: U251; test: NCI antitumor screen (SRB); format: cell-based; conditions: Homo sapiens, U-251, one dose 10 µM, read-out: Growth inhibition percentage (GI%)
[22] = test system: EKVX; test: NCI antitumor screen (SRB); format: cell-based; conditions: Homo sapiens, one dose 10 µM, read-out: Growth inhibition percentage (GI%)
[23] = test system: CAKI-1; test: NCI antitumor screen (SRB); format: cell-based; conditions: Homo sapiens, one dose 10 µM, read-out: Growth inhibition percentage (GI%)
[24] = test system: MDA-MB-231/ATCC; test: NCI antitumor screen (SRB); format: cell-based; conditions: Homo sapiens, one dose 10 µM, read-out: Growth inhibition percentage (GI%)
[25] = test system: SN12C; test: NCI antitumor screen (SRB); format: cell-based; conditions: Homo sapiens, one dose 10 µM, read-out: Growth inhibition percentage (GI%)
[26] = test system: K-562; test: NCI antitumor screen (SRB); format: cell-based; conditions: Homo sapiens
[27] = test system: SR; test: NCI antitumor screen (SRB); format: cell-based; conditions: Homo sapiens, one dose 10 µM, read-out: Growth inhibition percentage (GI%)
[28] = test system: M14; test: NCI antitumor screen (SRB); format: cell-based; conditions: Homo sapiens, one dose 10 µM, read-out: Growth inhibition percentage (GI%)
[29] = test system: MDA-MB-468; test: NCI antitumor screen (SRB); format: cell-based; conditions: Homo sapiens, one dose 10 µM, read-out: Growth inhibition percentage (GI%)
[30] = test system: full panel of 59 cancer cell lines; test: NCI antitumor screen, full panel; conditions: one dose 10 µM
[31] = test system: OVCAR-8; test: NCI antitumor screen (SRB); format: cell-based; conditions: Homo sapiens, one dose 10 µM, read-out: Growth inhibition percentage (GI%)
[32] = test system: SK-MEL-28; test: NCI antitumor screen (SRB); format: cell-based, human; conditions: Homo sapiens; SK-MEL-28; one dose 10 µM; read-out: Growth inhibition percentage (GI%)

In the case of `CNC(=O)c1cc(Oc2ccc(NC(=O)Nc3ccc(Cl)c(C(F)(F)F)c3)cc2)ccn1` [Sorafenib, sorafenib], the GI50 [1] is listed as 2.51 µM, the GI50 [2] is listed as 1.99 µM and the GI50 [3] is listed as 2.86 µM. For the same compound, the CC50 [3] was 54.8 µM, the “TGI (subpanel average)” value [3] was 10.86 µM and the GI50 [4] was 2.51 µM. For the same compound, the CC50 [5] was 57.3 µM, the “TGI (subpanel average)” value [5] was 9.35 µM and the GI50 [6] was 2.51 µM. The GI50 [7] was 2.33 µM, the CC50 [7] was 43.1 µM and the “TGI MG-MID (full panel mean-graph midpoint)” value [7] was 9.11 µM. The GI50 [8] was 1.99 µM, the GI50 [9] was 2.89 µM and the CC50 [9] was 71.3 µM. For the same compound, the “TGI (subpanel average)” value [9] was 14.43 µM, the GI50 [10] was 2.51 µM and the GI50 [11] was 1.87 µM. The CC50 [11] was 28.6 µM, the “TGI (subpanel average)” value [11] was 6.29 µM and the GI50 [12] was 2.33 µM. For the same compound, the CC50 [12] was 27.8 µM, the “TGI (subpanel average)” value [12] was 7.64 µM and the GI50 [13] was 1.99 µM. For the same compound, the GI50 [14] was 3.16 µM, the GI50 [15] was 2.51 µM and the GI50 [16] was 3.16 µM. The GI50 [17] was 2.51 µM.

For `O=c1[nH]cc(F)c(=O)[nH]1` [Compound 5-Fu, 5-fluorouracil, reference compound], the GI50 [3] is listed as 0.93 µM, the CC50 [3] is listed as > 100 µM and the “TGI (subpanel average)” value [3] is listed as 46.25 µM. For the same compound, the inhibition at 10 µM [18] was 48.8%, the GI50 ([5]; read-out: GI50 (subpanel average), reference drugs, ref https://dtp.cancer.gov/dtpstandard/dwindex/index.jsp) was 6.87 µM and the CC50 [5] was > 100 µM. The “TGI (subpanel average)” value [5] was 68.01 µM, the inhibition at 10 µM [19] was 59.8% and the inhibition at 10 µM [20] was 30.5%. For the same compound, the inhibition at 10 µM [21] was 49.7%, the inhibition at 10 µM [22] was 41.6% and the GI50 [7] was 0.9 µM. The CC50 [7] was 95.6 µM, the “TGI MG-MID (full panel mean-graph midpoint)” value [7] was 43.4 µM and the inhibition at 10 µM [23] was 60.6%. The GI50 [9] was 5.17 µM, the CC50 [9] was 92.9 µM and the “TGI (subpanel average)” value [9] was 38.36 µM. For the same compound, the inhibition at 10 µM [24] was 21.9%, the inhibition at 10 µM [25] was 46% and the GI50 [11] was 7.83 µM. For the same compound, the CC50 [11] was 95.4 µM, the “TGI (subpanel average)” value [11] was 61.57 µM and the GI50 [12] was 14.4 µM. The CC50 [12] was > 100 µM, the “TGI (subpanel average)” value [12] was 73.70 µM and the inhibition at 10 µM ([26]; K562, K-562, one dose 10 µM, read-out: Growth inhibition percentage (GI%)) was 57.7%. It also gave an inhibition at 10 µM [27] of 75.2%.

In the case of `CS(=O)(=O)c1ccc(C(=O)N/N=C/c2ccccc2O)cc1` [Compound 16], the inhibition at 10 µM [18] is reported as 59%, the inhibition at 10 µM [28] is reported as 67.5% and the inhibition at 10 µM [29] is reported as 35.3%. For the same compound, the inhibition at 10 µM [19] was 68.8%, the inhibition at 10 µM [20] was 44.8% and the inhibition at 10 µM [21] was 72.2%. The inhibition at 10 µM [22] was 74.2%, the “PCE: positive cytotoxic effect (number of cell lines with GI 10 to 100% / total number of cell lines)” value [30] was 59/59 and the inhibition at 10 µM [23] was 65.1%. The inhibition at 10 µM [24] was 52.6%, the inhibition at 10 µM [25] was 41.4% and the inhibition at 10 µM [31] was 72.1%. The inhibition at 10 µM ([26]; K562, read-out: Growth inhibition percentage (GI%)) was 59.5%, the inhibition at 10 µM [27] was 79.6% and the inhibition at 10 µM [32] was 44.1%.
